This note sets out measurements from patent publication US4379156A, “Heterocyclic chemicals, their preparation and use” (Burroughs Wellcome Co., priority 1979, dated 1983).

One data set deals with Schistosoma mansoni. Put plainly: Schistosomicidal activity in infected mice (proportion of dead worms). The data set is classed as in vivo. As to conditions: 12.5 mg/kg, dead worms relative to total worms recovered, autopsy 7 to 10 days after treatment; for % kill P.O.: oral; for % kill S.C.: subcutaneous. As for the experimental part: Male mice weighing between 18 and 20 g were each infected percutaneously with 80 to 100 cercariae of Schistosoma mansoni. Groups of 5 or 10 mice with a 7 to 9 week infection of schistosomes were dosed orally (P.O.) or subcutaneously (S.C.) with 12.5 mg/kg of the compounds to be tested, and the animals were autopsied from 7 to 10 days after treatment. The number, sex and proportional distribution of schistosomes within the mesenteric, portal and intrahepatic veins were determined, and the final assessment of dose response was made on the proportion of dead worms found in relation to the total worms recovered in the treated group.

A short description of data set [1]: Toxicity in adult male mice (LD50). The note with it: mouse, in vivo, observed up to 10 days. The method, then: Groups of adult male mice were given graded doses of the compound to be tested by stomach tube (P.O.) or subcutaneously (S.C.). The animals were kept under observation at frequent intervals up to 6 hours, then at 24 hours and daily for up to 10 days for overt changes in behaviour and for fatalities.

Data set [2] can be described thus: Toxicity in adult male mice (LD50). The note with it: mouse, in vivo, iv, I.V.
The mark [3] stands for this setting: po, by stomach tube, read-out: LD50 P.O.
The mark [4] stands for this setting: sc, subcutaneous, read-out: LD50 S.C.

Values joined by “and” are separate entries in the source; they are usually repeats but may differ in a detail not shown here. Equal entries are not always repeated. Where two headings read alike, the source gives them in different places.

As for “2-[2-(2-Chlorobenzoylimino)-5-nitro-4-thiazolin-3-yl]diacetamide [Example 3]”, in the data set on Schistosoma mansoni, the “% kill P.O.” value is 100% and 71%; the “% kill S.C.” value is 99% and 98%.
As for `CC(=O)NC(=O)Cn1cc([N+](=O)[O-])sc1=NC(=O)c1ccccc1` [*(1), 2-[2-(benzoylimino)-5-nitro-4-thiazolin-3yl]diacetamide, reference compound], in the data set on Schistosoma mansoni, the “% kill P.O.” value turned out to be 58% and the “% kill S.C.” value was determined as 53%. Moreover, in data set [1] (setting [3]), the LD50 (as a rule, the dose expected to kill half of the subjects tested) at 240 h is 953 mg/kg. Moreover, the LD50 in data set [2] worked out at 192 mg/kg.
As to `NC(=O)Cn1cc([N+](=O)[O-])sc1=NC(=O)c1ccccc1` [*(2), 2-(benzoylimino)-5-nitro-4-thiazoline-3-acetamide, reference compound], in the data set with Schistosoma mansoni, the “% kill P.O.” value is 8.5% and the “% kill S.C.” value was 0%.
As for `CC(=O)NC(=O)Cn1cc([N+](=O)[O-])sc1=NC(=O)c1ccccc1C` [Example 1, 2-[2-(2-Methylbenzoylimino)-5-nitro-4-thiazolin-3-yl]diacetamide], in the data set with Schistosoma mansoni, the “% kill P.O.” value amounted to 80% and the “% kill S.C.” value was 100%. Further, the LD50 at 240 h in data set [1] (setting [3]) is above 2000 mg/kg. Moreover, the LD50 at 240 h in data set [1] (setting [4]) was above 2000 mg/kg.
As for `CC(=O)NC(=O)Cn1cc([N+](=O)[O-])sc1=NC(=O)c1cccc([N+](=O)[O-])c1` [Example 2, 2-[2-(3-Nitrobenzoylimino)-5-nitro-4-thiazolin-3-yl]diacetamide], in the data set with Schistosoma mansoni, the “% kill P.O.” value was found to be 100% and the “% kill S.C.” value was determined as 100%. Besides, the LD50 at 240 h in data set [1] (setting [3]) was above 2000 mg/kg. In addition, the LD50 at 240 h in data set [1] (setting [4]) was above 2000 mg/kg.
For `CC(=O)NC(=O)Cn1cc([N+](=O)[O-])sc1=NC(=O)c1ccccc1[N+](=O)[O-]` [Example 4, 2-[2-(2-Nitrobenzoylimino)-5-nitro-4-thiazolin-3-yl]diacetamide], in the data set on Schistosoma mansoni, the “% kill P.O.” value turned out to be 74% and the “% kill S.C.” value came to 98%.
Take `Cc1ccccc1C(=O)N=c1sc([N+](=O)[O-])cn1CC(N)=O` [Example 5, 2-[(2-Methylbenzoyl)imino]-5-nitro-4-thiazoline-3-acetamide]: the LD50 at 240 h was above 2000 mg/kg in data set [1] (setting [3]) and above 1000 mg/kg in data set [1] (setting [4]).
With `NC(=O)Cn1cc([N+](=O)[O-])sc1=NC(=O)c1cccc([N+](=O)[O-])c1` [Example 6, 2-[(3-Nitrobenzoyl)imino]-5-nitro-4-thiazoline-3-acetamide], the values for the LD50 at 240 h in data set [1] (setting [3]) and in data set [1] (setting [4]) were above 1000 mg/kg and above 500 mg/kg, respectively.
